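Five concentrations, 48 hours, 96-well plates. Here, GI50 denotes the concentration required for 50% inhibition of growth. At the TGI there is no net growth.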
Key:
Assay in all cases: growth of human tumour cells (NCI), 48 h
BT-549 breast = test system: BT-549 breast
HT29 colon = test system: HT29 colon
OVCAR-5 ovarian = test system: OVCAR-5 ovarian
A498 renal = test system: A498 renal
COLO 205 colon = test system: COLO 205 colon
SK-MEL-28 melanoma = test system: SK-MEL-28 melanoma
HOP-92 NSCLC = test system: HOP-92 NSCLC
SF-539 CNS = test system: SF-539 CNS
LOX IMVI melanoma = test system: LOX IMVI melanoma
NCI-H522 lung = test system: NCI-H522 lung

Compound | GI50 (BT-549 breast) [µM] | TGI (BT-549 breast) [µM] | GI50 (HT29 colon) [µM] | TGI (HT29 colon) [µM] | GI50 (OVCAR-5 ovarian) [µM] | TGI (OVCAR-5 ovarian) [µM] | GI50 (A498 renal) [µM] | TGI (A498 renal) [µM] | GI50 (COLO 205 colon) [µM] | TGI (COLO 205 colon) [µM] | GI50 (SK-MEL-28 melanoma) [µM] | TGI (SK-MEL-28 melanoma) [µM] | GI50 (HOP-92 NSCLC) [µM] | TGI (HOP-92 NSCLC) [µM] | GI50 (SF-539 CNS) [µM] | TGI (SF-539 CNS) [µM] | GI50 (LOX IMVI melanoma) [µM] | TGI (LOX IMVI melanoma) [µM] | GI50 (NCI-H522 lung) [µM] | TGI (NCI-H522 lung) [µM]
CC1SC(c2ccc(OCc3ccccc3)cc2)N(NC(=O)C(O)(c2ccccc2)c2ccccc2)C1=O (centres undefined) | 5.45 | 22.4 | 3.05 | 7.68 | 3.81 | 16.1 | 3.34 | 13.7 | 1.98 | 4.26 | 4.44 | 16.3 | 1.14 | 4.74 | 14 | 42.6 | 3.87 | 14.6 |  | 
COC(=O)[C@@H](C)C[C@H](Cc1ccccc1)NC(=O)c1nc([C@@H](C[C@H](C(C)C)N(C)C(=O)[C@@H](NC(=O)[C@H]2CC(=O)CCN2C)C(C)C)OC(C)=O)sc1C(C)C | 0.0971 | 2.7 | 0.146 | > 6.97 | 0.617 | > 16.7 | 0.0826 | 0.818 | 0.208 | 1.69 | 0.524 | > 16.7 | 0.119 | > 16.7 | 0.345 | 0.967 | 0.11 | > 16.7 | 0.0549 | 
CCN(CC)CCN1C(=O)c2cccc3cc(N)cc(c23)C1=O |  | 40.4 |  | 18.1 |  | 15.7 |  | 57.5 |  | 16.8 |  | 36.1 |  | > 100 |  | 20.4 |  |  |  | 21.8
Cc1nn(-c2ccccc2)c2c1[C@@H](C)[C@H]1CC3(CC4(C)C[C@@H]3C1(C)c1c(C)nn(-c3ccccc3)c1N4C)N2C (some centres undefined) | > 100 | > 100 |  |  | > 100 | > 100 | > 100 | > 100 |  |  | 31.4 | > 100 | 0.792 | 8.68 | > 100 | > 100 |  |  | 3.88 | > 100
C=C(CN1CCc2ccccc2C1)c1ccc(C(=O)Nc2cccc(N)c2)cc1 | 16.2 | 34.4 | 20.4 | 94.7 | 60.9 | > 100 | 20.5 | 45.5 | 20.7 | 45.5 | 31.1 | > 100 | 63.9 | > 100 | 17.4 | 35.3 |  |  | 18 | 40.2
COc1ccc2c(c1)OCC1c3cc(OC)ccc3OC21 (centres undefined) | 34.4 | > 100 | 34.9 | > 100 | 80.1 | > 100 | 63.1 | > 100 | 38.2 | > 100 | 91.2 | > 100 | 60.3 | > 100 | 97.7 | > 100 | 45.9 | > 100 |  | 
C=CN(C(=O)N1CCN(c2cc3c(cc2F)c(=O)c(C(=O)O)cn3C2CC2)CC1)c1nc(-c2ccc(C)cc2)cs1 | 0.306 | 2.11 | 3.31 | > 100 | 4.14 | > 100 |  |  | 2.09 | 4.72 | 4.49 | > 100 | 1.13 | 4.39 |  |  |  |  | 2.27 | 6.23
Nc1ncnc2c1ncn2C1SC(CO)C(O)C1O (centres undefined) | 12.7 | 43.2 | 10.7 | 42.4 | > 100 | > 100 |  |  | 33.3 | > 100 | 56.5 | > 100 | 13.6 | 52.4 | 19.7 | 50.1 | 18.5 | 48.4 | 40 | > 100
O=C(N=Nc1c(O)[nH]c2c(Cl)cc(Cl)cc12)C(=O)Nc1cccc(C(F)(F)F)c1 |  | > 100 |  | > 100 |  | > 100 |  | > 100 |  | > 100 |  | > 100 |  | > 100 |  | > 100 |  | > 100 |  | 
O=C(/C=C/c1c[nH]c2ccccc12)c1ccccc1O |  | 28.3 |  | 33.9 |  | 28.8 |  | 28.5 |  |  |  | 47.6 |  | 17.1 |  | 25.1 |  | 21.7 |  | 23
N/C(=N\O)c1cn(C2OC(CO)C(O)C2O)c2ncnc(N)c12 (centres undefined) | 0.311 | 17.7 | 0.226 | 18.6 | 0.507 | > 40.5 | 0.14 | 0.555 | 0.131 | 0.601 | 0.127 | 0.382 |  |  | 0.255 | 3.51 | 0.153 | 0.501 | 0.157 | 0.401
